Data set [1] can be described thus: Plasma clearance in rhesus monkey at 3 mg/kg, iv. The format is ADME, organism-based, Macaca mulatta. Set-up: dose 3 mg/kg, route intravenous.
Data set [2] in a line: Plasma clearance in Beagle dog at 3 mg/kg, iv. Also noted: dose 3 mg/kg, route intravenous. The format is ADME, organism-based, Canis lupus familiaris.
Data set [3] is described as follows: Fraction unbound in Sprague-Dawley rat plasma at 3 mg/kg, iv. The format is ADME, organism-based. Set-up: dose 3 mg/kg, route intravenous.
A short description of data set [4]: Half life in Sprague-Dawley rat at 3 mg/kg, iv. Set-up: dose 3 mg/kg, route intravenous. The following applies: in vivo. The format is ADME, organism-based.
Data set [5] is described as follows: Lipophilicity, log D of the compound at pH 7.3. The following applies: buffer. The format is physicochemical.
A short description of data set [6]: Fraction unbound in Beagle dog plasma at 3 mg/kg, iv. The format is ADME, organism-based, Canis lupus familiaris. Also noted: dose 3 mg/kg, route intravenous.
The nature of data set [7]: Oral bioavailability in rhesus monkey at 10 mg/kg. The following applies: in vivo. The format is ADME, organism-based, Macaca mulatta.
A short description of data set [8]: Fraction unbound in rhesus monkey plasma at 3 mg/kg, iv. The format is ADME, organism-based, Macaca mulatta. Also noted: dose 3 mg/kg, route intravenous.
Data set [9] is described as follows: Plasma clearance in Sprague-Dawley rat at 3 mg/kg, iv. The format is ADME, organism-based. Set-up: dose 3 mg/kg, route intravenous.
Data set [10] in a line: Half life in Beagle dog at 3 mg/kg, iv. The format is ADME, organism-based, Canis lupus familiaris. Set-up: dose 3 mg/kg, route intravenous. The following applies: in vivo.
Data set [11] in a line: Half life in rhesus monkey at 3 mg/kg, iv. The format is ADME, organism-based, Macaca mulatta. Also noted: dose 3 mg/kg, route intravenous. The following applies: in vivo.

With `O=S(=O)(Nc1ccc(CCNC[C@H](O)c2cccnc2)cc1)c1ccc(-c2nc(-c3ccc(C(F)(F)F)cc3)cs2)cc1`, the clearance amounted to 19 mL/min/kg in data set [1], 20 mL/min/kg in data set [2] and 62 mL/min/kg in [9]. Besides, the fraction unbound in [3], in [6] and in data set [8] was 0.02 throughout. The half-life in data set [4] is 8 h; in data set [10], 14 h; in data set [11], 9 h. The molecule also returned a logD in [5] of 4.6. Moreover, the bioavailability in [7] was 4%.

Source of the values: ChEMBL document CHEMBL3124772, “Design, synthesis, and evaluation of conformationally restricted acetanilides as potent and selective β3 adrenergic receptor agonists for the treatment of overactive bladder” (J Med Chem, 2014).
